# Data from publication PMC12481569, “Novltex: A New Class of Antibiotics with Potent Activity against Multidrug-Resistant Bacterial Pathogens–Design, Synthesis, and Biological Evaluation” (Journal of Medicinal Chemistry, 2025).
# Positions of bridges follow the written chain, without caps; N, C: chain ends. Non-standard residues stand in square brackets, D forms with d. Residues, ends and D or L forms follow the SMILES beside them. dCha = N[C@H](CC1CCCCC1)C(=O)O
# How the values were obtained:
# [1] = tested on: Multidrug-Resistant (MDR) E. faecium; test: microbe, parasite or virus in culture
# Experimental: (§1) We further evaluated analogue 12 against multidrug-resistant (MDR) strains of S. aureus (acquired from the NARSA collection) and MDR E. faecium (acquired from International Health Management Associates, IHMA, Europe Sarl), comparing its activity to various classes of clinically used antibiotics (Table ).
# (§2) MICs were performed as previously reported 4. For MIC testing all peptides were dissolved in DMSO.
# (§3) Bacterial cultures were grown overnight on Mueller-Hinton Agar (MHA) plates and adjusted to a final inoculum of 10^5 – 10^6 CFU/mL. 100 µl of ino culum in Meuller -Hinton broth (MHB) was mixed with equal volume of peptides (dissolved in MHB) at 2x their concentration in a 96 well plate . For daptomycin MIC determination, the same protocol was followed with the addition of 50 mg/L calcium chloride to the medium. MIC values were determined in the media contain ing polysorbate 80 (0.002%, v/v) to prevent non -specific adsorption of the peptides to plastic surfaces. The final peptides concentrations ranged from 0.0625 – 32 µg/mL. The 96 well plates were then incubated at 37 °C for 24 h. All the experiments were performed in two independent duplicates and the MIC was determined as the lowest concentration in which no visible growth was observed.
# (§4) Antibiotics MIC break points ( µg/mL)
# (§5) Table. S4: Susceptibility cut-off values (MIC breakpoints) for various clinical antibiotics. […]
# [2] = tested on: Multidrug-Resistant (MDR) S. aureus; test: microbe, parasite or virus in culture; settings: MHB, 0.002% polysorbate 80, 37 °C, 24 h, daptomycin with 50 mg/L calcium chloride
# Experimental: as §1, §2, §3, §4, §5
# HEK293T = test: Cytotoxicity, MTS-based assay; type: cell-based, human; settings: up to 50 μg/mL, 24 or 48 h, three independent experiments in triplicate
# Experimental: (§6) 4 Cytotoxicity evaluation of analogue 12. Human primary dermal fibroblasts (A), liver cell line HepG2 (B), and kidney cell line HEK293T (C) cells (5 × 10^3 cells/well in 96-well plates) were treated with increasing concentrations of analogue 12 or 1 μM staurosporine (STS, used as a positive toxicity control) for 24 or 48 h, as indicated. Viability of cells was determined using an MTS-based assay. Results (% cell viability) are the mean ± SD of three independent experiments performed in triplicate. (D) Freshly collected human red blood cells (RBCs) were exposed to increasing concentrations of 12 or Triton X-100 (TX), as indicated, for 1 h. Hemolytic activity (% hemolysis) was determined by spectrophotometrically measuring the release of hemoglobin compared to that with TX (used as a positive control). Results are the mean ± SD of 4 independent experiments performed in duplicate using blood samples from four different anonymous healthy donors. […]
# (§7) Bacterial cultures were grown overnight on Mueller-Hinton Agar (MHA) plates and adjusted to a final inoculum of 10^5 – 10^6 CFU/mL. […] MIC values were determined in the media contain ing polysorbate 80 (0.002%, v/v) to prevent non -specific adsorption of the peptides to plastic surfaces. […] All the experiments were performed in two independent duplicates and the MIC was determined as the lowest concentration in which no visible growth was observed. […]
# HepG2 = test: Cytotoxicity, MTS-based assay; type: cell-based, human; settings: up to 50 μg/mL, 24 or 48 h, three independent experiments in triplicate
# Experimental: as §6, §7
compound,measurement,setting,value
"CC(C)C[C@@H]1NC(=O)[C@H](C)NC(=O)[C@H](NC(=O)[C@H](CO)NC(=O)[C@@H](CCCCN)NC(=O)[C@@H](CC2CCCCC2)NC(=O)[C@@H](N)Cc2ccccc2)[C@H](C)OC(=O)[C@H](CC(C)C)NC1=O [analogue 12, Leu2Cha–Novltex] (H-F[dCha][dK]S[dT]ALL; ester 5-C)","MIC, Enterococcus faecium 1563254","[1]; MDR clinical isolate 1563254, MHB, 0.002% polysorbate 80, 37 °C, 24 h, daptomycin with 50 mg/L calcium chloride",0.25 µg/mL
same,"MIC, Enterococcus faecium 1581582","[1]; MDR clinical isolate 1581582, MHB, 0.002% polysorbate 80, 37 °C, 24 h, daptomycin with 50 mg/L calcium chloride",0.5 µg/mL
same,"MIC, Enterococcus faecium 1766686","[1]; MDR clinical isolate 1766686, MHB, 0.002% polysorbate 80, 37 °C, 24 h, daptomycin with 50 mg/L calcium chloride",0.125 µg/mL
same,MIC range against MDR E. faecium strains,[1]; range over the three clinical isolates,0.125 to 0.5 µg/mL
same,"MIC, Staphylococcus aureus NR 45914",[2]; MDR strain NR 45914,0.125 µg/mL
same,"MIC, Staphylococcus aureus NR 45926",[2]; MDR strain NR 45926,0.125 µg/mL
same,"MIC, Staphylococcus aureus NR 45930",[2]; MDR strain NR 45930,0.125 µg/mL
same,"MIC, Staphylococcus aureus NR 46062",[2]; MDR strain NR 46062,0.063 µg/mL
same,"cytotoxicity (cell viability), HEK293T",HEK293T,no major cytotoxicity
same,"cytotoxicity (cell viability), HepG2",HepG2,no major cytotoxicity
